Experiments:
Format in all cases: in vivo, mouse
[1] = system: G93A mutant SOD1 transgenic mice; assay: Immunohistochemical analysis of lumbar spinal cord in ALS animal model
Method: (§1) As a control group, non-transgenic mice were injected intraperitoneally (i.p.) with vehicle (DMSO) in the same manner for the same period of time.
(§2) Specifically, the mice of Example 6 above were perfused with 4% paraformaldehyde (PFA) on 90 and 120 days of age, and the lumbar spinal cord and knee joints were separated. After fixation in 4% PFA for 24 hours, the knee joints were rinsed in running tap water for 24 hours and then incubated at 4° C. with continuous shaking in decalcifying solution (Calci-Clear, HS-104, National Diagnostics). The decalcification solution was replaced daily with fresh solution until the bones were easily penetrated with a needle, indicating completion of the decalcification process. Subsequently, the decalcified knee joints were rinsed in running tap water for 24 hours, and the spinal cord and knee joint samples were treated with 30% sucrose until they sank, followed by freeze protection, followed by successive cuts (14 μm). The lumbar spinal cord and knee joint tissue sections were washed three times with PBS and permeabilized with 0.5% Triton X-100 for 5 minutes. Subsequently, they were blocked with 5% bovine serum albumin (BSA) in 0.3% PBS-T at room temperature for 1 hour. The knee joint tissue sections were incubated with anti-TGF-β1 antibody (1:200; Santa Cruz, cat #sc130348), anti-α-SMA antibody (1:200; Abcam, cat #ab7817), anti-MyoD antibody (1:200; Santa Cruz, cat #sc377460), and anti-Collagen I antibody (1:200; Abcam, cat #ab21286) each, while the lumbar spinal cord sections were incubated with anti-GFAP antibody (1:200; Dako, cat #Z0334), anti-Iba1 antibody (1:200; Wako, cat #016)-20001), anti-TGF-β1 antibody (1:200; Santa Cruz, cat #sc130348), anti-TGF-β1 antibody (1:200; Abcam, cat #ab92486), and anti-IL-1β antibody (1:200; R&D Systems, cat #AF-401-NA) at 4° C. for an additional 24 hours. After washing the sections three times with PBS, they were incubated with Alexa Fluor secondary antibodies in a dark chamber at room temperature for 1 hour. […] Furthermore, analysis was performed using Leica Application Suite X software (Leica Microsystems).
Specifically, halofuginone was administered to G93A mutant SOD1 mice in the same manner as described in <Example 6>, and immunohistochemical analysis was performed in the same manner as described in <Example 8> to identify TGF-β1 and glial cells in the lumbar spinal cord. Considering that TGF-β derived from astrocytes has been reported to accelerate disease in ALS mice, each group's spinal cord was co-stained with TGF-β and GFAP during immunohistochemical analysis. In addition, Iba1 staining was performed to confirm the activity of microglia (FIGS. 9a and 9b).
In addition, to investigate the effect of glial changes in TGF-β and CNS on inflammation, IL-1β, a representative pro-inflammatory cytokine, was simultaneously stained with GFAP during immunohistochemical analysis (FIG. 9c).
In addition, halofuginone was administered to G93A mutant SOD1 mice in the same manner as described in Example 6. After sacrificing the mice at 90 days of age, Iba1 staining was performed to confirm the activation of microglia (FIG. 10a), and motor neurons were observed and counted using the same method as described above (FIG. 10b).

[2] = system: G93A mutant SOD1 transgenic mice; assay: Immunohistochemical analysis of knee joint synovial cavity in ALS animal model
Method: as §1, §2
Specifically, halofuginone was administered to G93A mutant SOD1 mice from the early onset of ALS (day 73) in the same manner as described in Example 6. Immunohistochemical analysis was performed on the knee joints of early-stage female and male mice (90 days old, FIGS. 7a and 7b) and late-stage female and male mice (120 days old, FIGS. 7c and 7d) in the same manner as described in <Example 8>.

[3] = system: G93A mutant SOD1 transgenic mice; assay: Real-time qRT-PCR analysis of lumbar spinal cord in ALS animal model
Method: as §1
Specifically, total RNA was isolated from C2C12 cells in Example 1, fibroblasts in Example 5, and the lumbar spinal cord of mice in Example 6 using the FavorPrep™ Tri-RNA Reagent (Favorgen). The lumbar spinal cord was isolated from the mouse in Example 6 and stored frozen at −80° C. until the experiment. The concentration of total RNA was measured at 260 nm absorbance using a spectrophotometer (NanoDrop Spectrophotometer ND-2000, Thermo Scientific). cDNA was synthesized from 1 μg of total RNA using the ReverTra Ace-α™ (Toyobo) according to the manufacturers protocol. Quantitative RT-PCR was performed using the SYBR Green ExcelTaq™ 2× Fast Q-PCR Master Mix (TQ1200, Smobio) on a thermocycler (CFX Connect Real-Time PCR Detection System, BIO-RAD) with the primers listed in Table 3 below. Fluorescence data were analyzed with Bio-Rad CFX Manager 3.1 software, and control versus relative mRNA expression was calculated by the 2AT) method. Experiments were performed four times on all samples. All primers were designed using Primer3 online software, and GAPDH was used as a control group.
In addition, to investigate the motor neuron source of the spinal cord, motor neurons of the lumbar spinal cord were observed and counted in the same manner as described in Example 9 (FIG. 9d), and real-time qRT-PCR and Western blot analysis were performed in the same manner as described in Example 11 and Example 12 to quantitatively analyze the expression of ChAT mRNA (FIG. 9e) and ChAT protein (FIG. 9f).
Specifically, Halofuginone was administered to G93A mutant SOD1 mice in the same manner as described in <Example 6>, and lumbar spinal cord was isolated after 120 days of age of mice were sacrificed. Then, mRNA expression of inflammation-related factors and neuronal cell death-related factors of CNS was confirmed by performing real-time qRT-PCT analysis in the same manner as in Example 11 (FIG. 11a), and protein expression of neuronal cell death-related factors was confirmed by performing Western blot analysis in the same manner as in Example 12 (FIG. 11b). Since the role (inflammatory or anti-inflammatory effect) differs according to the M1 or M2 subtype of microglia, the expression of M1 marker (iNOS, CD86), M2 marker (arginase 1) and pro-inflammatory factors (IFN-a, TNF-a, IL-1b, and IL-6) were confirmed as factors related to inflammation of CNS. In addition, the expression of caspase-3, bax, and bcl-2 was confirmed as factors related to neuronal apoptosis.

[4] = 90 days old (early stage), females and males, vs DMSO TG group
[5] = 120 days old (late stage), vs DMSO TG group

For `O=C(C[C@H]1NCCC[C@@H]1O)Cn1cnc2cc(Br)c(Cl)cc2c1=O` (racemic) [halofuginone], the “microglia activity (Iba1) in lumbar spinal cord, compared with changes at 120 days” value ([1]; 90-day-old mice (FIG. 10a)) was “similar”, the “microglia (Iba1) in lumbar spinal cord” value ([1]; 120-day-old mice (FIG. 9a)) was “continuously increased” and the “increase in TGF-β1 in lumbar spinal cord” value ([1]; 120-day-old mice (FIG. 9b)) was “significantly reduced”. The “increase in astrocyte activity (GFAP) in lumbar spinal cord” value ([1]; 120-day-old mice (FIG. 9b)) was “significantly reduced”, the “activated inflammation (IL-1β with GFAP activity) in lumbar spinal cord” value ([1]; 120-day-old mice (FIG. 9c)) was “suppressed” and the “increase in TGF-β in knee joint synovial cavity” value ([2]; 90 days old (early stage), females and males, 250 μg/kg i.p.) was “suppressed”. For the same molecule, the “Col-I expression in knee joint synovial cavity” value [2, 4] was “significantly lower”, the “α-SMA expression in knee joint synovial cavity” value [2, 4] was “significantly lower” and the “Col-I in the synovial cavity” value [2, 5] was “significantly lower”. The “MyoD in the synovial cavity” value [2, 5] was “higher”, the “TGF-β1 in the synovial cavity” value [2, 5] was “significantly lower” and the “α-SMA in the synovial cavity” value [2, 5] was “significantly lower”. For the same molecule, the “strength of TGF-β1, MyoD and Col-1 in the synovial cavity” value ([2]; 120 days old, female Hal TG group vs DMSO non-TG group) was “not different”, the “strength of MyoD in the synovial cavity” value ([2]; 120 days old, male Hal TG group vs DMSO non-TG group) was “slightly increased” and the “mRNA level of ChAT in lumbar spinal cord” value ([3]; 120-day-old mice, compared to DMSO Non-TG group (FIG. 9e)) was “preserved similarly”. For the same molecule, the “increase in mRNA levels of M1 markers (iNOS, CD86) in lumbar spinal cord” value ([3]; 120 days of age (FIG. 11a)) was “inhibited”, the “increase in mRNA levels of proinflammatory factors (IFN-a, TNF-a, IL-1b, IL-6) in lumbar spinal cord” value ([3]; 120 days of age (FIG. 11a)) was “inhibited” and the “mRNA level of bcl-2 in lumbar spinal cord” value ([3]; 120 days of age, decreased in DMSO TG group (FIG. 11a)) was “preserved”.
